Reference: ChEMBL document CHEMBL1158316, “Modulation of lipoxygenase activity by bacterial hopanoids” (J Nat Prod, 1997)
Active and inactive are the calls of the source. No cut-off for these calls is given here.

Columns and labels:
Glycine max [1] = test: Inhibition of soybean 15-lipoxygenase assessed as rate of disappearance of dissolved oxygen at 25 uM relative to control; design: scale not given: the % may be the effect or the level left
Glycine max [2] = test: Inhibition of soybean 15-lipoxygenase assessed as rate of disappearance of dissolved oxygen at 50 uM relative to control; design: scale not given: the % may be the effect or the level left
Glycine max [3] = test: (§1) Inhibition of soybean 15-lipoxygenase
[4] = Inhibition of cyclooxygenase assessed as rate of disappearance of dissolved oxygen at 2.4 uM relative to control; design: scale not given: the % may be the effect or the level left
[5] = target: T1, Polyunsaturated fatty acid 5-lipoxygenase (Homo sapiens) (UniProt P09917); test: Inhibition of human recombinant 5-lipoxygenase assessed as rate of disappearance of dissolved oxygen at 25 uM relative to control; design: scale not given: the % may be the effect or the level left
T1 sequence (whole entry): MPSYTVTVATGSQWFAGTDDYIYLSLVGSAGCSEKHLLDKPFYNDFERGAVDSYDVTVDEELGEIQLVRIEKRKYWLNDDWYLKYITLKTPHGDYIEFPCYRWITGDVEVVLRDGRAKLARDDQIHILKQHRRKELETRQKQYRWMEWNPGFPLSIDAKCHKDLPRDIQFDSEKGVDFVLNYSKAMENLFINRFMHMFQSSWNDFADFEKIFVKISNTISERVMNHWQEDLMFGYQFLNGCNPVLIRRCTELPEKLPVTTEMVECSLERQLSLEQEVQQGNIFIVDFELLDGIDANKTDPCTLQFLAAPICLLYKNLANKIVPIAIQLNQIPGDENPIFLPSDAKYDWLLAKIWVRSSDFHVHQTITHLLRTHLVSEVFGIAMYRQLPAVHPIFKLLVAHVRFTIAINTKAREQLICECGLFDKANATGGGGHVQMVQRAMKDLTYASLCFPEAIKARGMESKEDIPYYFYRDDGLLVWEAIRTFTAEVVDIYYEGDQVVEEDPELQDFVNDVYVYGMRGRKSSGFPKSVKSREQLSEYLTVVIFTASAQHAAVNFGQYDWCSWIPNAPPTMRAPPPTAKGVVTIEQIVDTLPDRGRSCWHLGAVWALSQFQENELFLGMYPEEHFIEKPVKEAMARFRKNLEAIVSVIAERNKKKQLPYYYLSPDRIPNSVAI

Glycine max [6] = test: Inhibition of soybean 15-lipoxygenase assessed as rate of disappearance of dissolved oxygen at 6.75 uM relative to control; design: scale not given: the % may be the effect or the level left
Glycine max [7] = test: Inhibition of soybean 15-lipoxygenase assessed as rate of disappearance of dissolved oxygen at 12.5 uM relative to control; design: scale not given: the % may be the effect or the level left
Glycine max [8] = test: Inhibition of soybean 15-lipoxygenase assessed as rate of disappearance of dissolved oxygen at 100 uM relative to control; design: scale not given: the % may be the effect or the level left
[9] = target: T1, Polyunsaturated fatty acid 5-lipoxygenase (Homo sapiens); test: Inhibition of human recombinant 5-lipoxygenase assessed as rate of disappearance of dissolved oxygen at 50 uM relative to control; design: scale not given: the % may be the effect or the level left
[10] = Inhibition of cyclooxygenase assessed as rate of disappearance of dissolved oxygen at 25 uM relative to control; design: scale not given: the % may be the effect or the level left
[11] = Inhibition of cyclooxygenase assessed as rate of disappearance of dissolved oxygen at 50 uM relative to control; design: scale not given: the % may be the effect or the level left
[12] = as §1; design: species or system Glycine max

Compound	Activity (Glycine max [1]) [%]	Activity (Glycine max [2]) [%]	Activity [5] [%]	further results
CC(=O)OC[C@H](OC(C)=O)[C@H](OC(C)=O)[C@@H](CC[C@@H](C)[C@H]1CC[C@]2(C)[C@H]3CC[C@@H]4[C@@]5(C)CCCC(C)(C)[C@@H]5CC[C@@]4(C)[C@]3(C)CC[C@@H]12)OC(C)=O	89	114		Activity (Glycine max [3]): inactive
COc1ccc2c(c1)c(CC(=O)O)c(C)n2C(=O)c1ccc(Cl)cc1				Activity [4]: 7%
C[C@H](CC[C@@H](O)[C@@H](O)[C@@H](O)CO[C@@H]1O[C@H](CO)[C@@H](O)[C@H](O)[C@H]1N)[C@H]1CC[C@]2(C)[C@H]3CC[C@@H]4[C@@]5(C)CCCC(C)(C)[C@@H]5CC[C@@]4(C)[C@]3(C)CC[C@@H]12	172	188		
C[C@H](CC[C@@H](O)[C@@H](O)[C@@H](O)CO[C@H]1[C@H](N)[C@@H](O)[C@H](O)[C@@]1(O)CO)[C@H]1CC[C@]2(C)[C@H]3CC[C@@H]4[C@@]5(C)CCCC(C)(C)[C@@H]5CC[C@@]4(C)[C@]3(C)CC[C@@H]12	151	250		
O=C1CCN(c2ccccc2)N1	34		55	
C[C@H](CC[C@@H](O)[C@@H](O)[C@@H](O)CO)[C@H]1CC[C@]2(C)[C@H]3CC[C@@H]4[C@@]5(C)CCCC(C)(C)[C@@H]5CC[C@@]4(C)[C@]3(C)CC[C@@H]12 [TETRAHYDROXYBACTERIOHOPANE]	15	4	98	Activity (Glycine max [6]): 68%; Activity (Glycine max [7]): 48%; Activity (Glycine max [8]): 11%; Activity [9]: 97%; Activity [10]: 102%; Activity [11]: 103%; IC50 [12]: 10 µM
